Measured values reported in article PMC3961306, “Comparison of the Cancer Gene Targeting and Biochemical Selectivities of All Targeted Kinase Inhibitors Approved for Clinical Use” (PLoS ONE, 2014).
Where two headings read alike, the source gives them in different places.

Tests used:
[1] = tested on: forty-four human cancer cell lines; experiment: Cell proliferation assay (ATPlite, 72 hours) in the 44 cell line Oncolines panel; type: cell-based; conditions: Homo sapiens
[2] = target: panel of more than 300 wild-type and mutant kinases (313 kinase panel) (Homo sapiens, UniProt P11362, V561M); experiment: Kinase profiling in a biochemical assay panel (mobility shift assays and ELISA), %-inhibition at 1 μM; selectivity entropy; conditions: kinase FGFR1(V561M); compound at 1 μM
[3] = target: T1, panel of more than 300 wild-type and mutant kinases (313 kinase panel) (Homo sapiens, UniProt P30530); experiment: as above
T1 sequence (P30530 26-894): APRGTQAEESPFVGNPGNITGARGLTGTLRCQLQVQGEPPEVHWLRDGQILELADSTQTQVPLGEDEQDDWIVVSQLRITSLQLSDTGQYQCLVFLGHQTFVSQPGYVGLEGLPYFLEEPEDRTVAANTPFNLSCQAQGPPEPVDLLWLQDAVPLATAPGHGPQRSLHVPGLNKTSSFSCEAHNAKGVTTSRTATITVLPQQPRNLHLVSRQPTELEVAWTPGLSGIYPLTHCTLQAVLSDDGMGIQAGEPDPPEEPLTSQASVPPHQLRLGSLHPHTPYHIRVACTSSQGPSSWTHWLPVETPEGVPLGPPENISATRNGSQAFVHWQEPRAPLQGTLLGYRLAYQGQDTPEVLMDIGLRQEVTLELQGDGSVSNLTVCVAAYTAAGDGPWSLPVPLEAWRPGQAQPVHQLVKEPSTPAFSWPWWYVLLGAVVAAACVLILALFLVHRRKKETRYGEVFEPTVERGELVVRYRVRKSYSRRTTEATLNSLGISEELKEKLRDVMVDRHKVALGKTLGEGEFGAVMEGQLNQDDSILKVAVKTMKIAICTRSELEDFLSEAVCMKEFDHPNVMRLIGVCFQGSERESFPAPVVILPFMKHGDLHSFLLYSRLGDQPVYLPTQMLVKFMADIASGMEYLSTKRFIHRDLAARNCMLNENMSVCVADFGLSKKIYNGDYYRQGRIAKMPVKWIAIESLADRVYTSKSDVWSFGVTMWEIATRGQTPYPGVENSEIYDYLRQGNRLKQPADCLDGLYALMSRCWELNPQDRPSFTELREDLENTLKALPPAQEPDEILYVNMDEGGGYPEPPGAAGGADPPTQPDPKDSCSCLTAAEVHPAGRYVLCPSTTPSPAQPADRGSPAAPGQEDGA

[4] = target: panel of more than 300 wild-type and mutant kinases (313 kinase panel) (Homo sapiens, UniProt Q9NQU5); experiment: as above
[5] = target: panel of more than 300 wild-type and mutant kinases (313 kinase panel) (Homo sapiens, UniProt P22694); experiment: as above; conditions: 1 µM
[6] = target: T2, panel of more than 300 wild-type and mutant kinases (313 kinase panel) (Homo sapiens, UniProt P51955); experiment: as above; conditions: 1 µM
T2 sequence (P51955 1-445): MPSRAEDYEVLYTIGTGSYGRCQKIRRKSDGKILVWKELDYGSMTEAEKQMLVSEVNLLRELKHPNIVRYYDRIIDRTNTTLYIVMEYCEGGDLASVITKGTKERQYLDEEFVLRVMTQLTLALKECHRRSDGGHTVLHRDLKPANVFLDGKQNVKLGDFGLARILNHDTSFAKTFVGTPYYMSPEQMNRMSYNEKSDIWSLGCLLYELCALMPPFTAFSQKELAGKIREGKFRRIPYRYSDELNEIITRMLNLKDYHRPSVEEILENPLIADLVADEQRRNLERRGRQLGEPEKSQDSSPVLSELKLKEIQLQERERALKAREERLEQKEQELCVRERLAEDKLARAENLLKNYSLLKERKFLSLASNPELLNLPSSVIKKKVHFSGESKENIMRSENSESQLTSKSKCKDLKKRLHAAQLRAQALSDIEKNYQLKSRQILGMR

[7] = A 172, read-out: cell panel IC50, A-172
[8] = A498, read-out: cell panel IC50, A-498
[9] = AU565, read-out: cell panel IC50, AU-565
[10] = HCT-116, read-out: cell panel IC50, HCT-116
[11] = K562, read-out: cell panel IC50, K-562
[12] = LS174T, read-out: cell panel IC50, LS 174T

SMILES: CC(C)(C)c1nc(-c2cccc(NS(=O)(=O)c3c(F)cccc3F)c2F)c(-c2ccnc(N)n2)s1 [dabrafenib]
- IC50 [1, 7]: 3.5 µM
- IC50 ([1]; A204, cell line A-204, read-out: cell panel IC50, A-204): 4.69 µM
- IC50 [1, 8]: 2.28 µM
- IC50 ([1]; A549, read-out: cell panel IC50, A-549): 4.12 µM
- IC50 ([1]; A-375, cell line A375, read-out: cell panel IC50, A375): 0.026 µM
- IC50 ([1]; A-427, read-out: cell panel IC50, A-427): 3.45 µM
- IC50 [1, 9]: 5.92 µM
- IC50 ([1]; BT-549, read-out: cell panel IC50, BT-549): 5.73 µM
- IC50 [1, 10]: 0.85 µM
- IC50 [1, 11]: 13.5 µM
- IC50 [1, 12]: > 31.6 µM
- IC50 ([1]; SHP77, cell line SHP-77, read-out: cell panel IC50, SHP-77): 28.9 µM
- IC50 ([1]; SW-620, cell line SW620, read-out: cell panel IC50, SW620): 2.47 µM
- IC50 ([1]; U2OS, cell line U-2 OS, read-out: cell panel IC50, U-2 OS): > 31.6 µM
- IC50 ([1]; cell line J82, read-out: cell panel IC50, J82): > 31.6 µM
- IC50 ([1]; cell line PA-1, read-out: cell panel IC50, PA-1): 2.11 µM
- IC50 ([1]; cell line SJCRH30, read-out: cell panel IC50, SJCRH30): > 31.6 µM
- IC50 ([1]; cell line SR, read-out: cell panel IC50, SR): 2.12 µM
- IC50 ([1]; U-87 MG cell line, ATPlite, 72 hours, read-out: IC50 in cell proliferation assay (table S5 cellpanel data)): > 31.6 µM
- IC50 ([1]; cell line 769-P, read-out: cell panel IC50, 769-P): 10.9 µM
- IC50 ([1]; cell line 786-0, read-out: cell panel IC50, 786-0): 3.3 µM
- IC50 ([1]; cell line ACHN, read-out: cell panel IC50, ACHN): 1.15 µM
- IC50 ([1]; cell line AN3 CA, read-out: cell panel IC50, AN3 CA): > 31.6 µM
- IC50 ([1]; cell line BT-20, read-out: cell panel IC50, BT-20): > 31.6 µM
- IC50 ([1]; cell line BxPC-3, read-out: cell panel IC50, BxPC-3): 2.68 µM
- IC50 ([1]; cell line C-33 A, read-out: cell panel IC50, C-33 A): 3.31 µM
- IC50 ([1]; cell line CAL 27, read-out: cell panel IC50, CAL 27): 30.8 µM
- IC50 ([1]; cell line CCRF-CEM, read-out: cell panel IC50, CCRF-CEM): > 31.6 µM
- IC50 ([1]; cell line DLD-1, read-out: cell panel IC50, DLD-1): 3.92 µM
- IC50 ([1]; cell line FaDu, read-out: cell panel IC50, FaDu): 4.38 µM
- IC50 ([1]; cell line HCT-15, read-out: cell panel IC50, HCT-15): 3.33 µM
- IC50 ([1]; cell line Hs 578T, read-out: cell panel IC50, Hs 578T): 11.5 µM
- IC50 ([1]; cell line Jurkat E6.1, read-out: cell panel IC50, Jurkat E6.1): 3.12 µM
- IC50 ([1]; cell line LoVo, read-out: cell panel IC50, LoVo): 1.86 µM
- IC50 ([1]; cell line MG-63, read-out: cell panel IC50, MG-63): > 31.6 µM
- IC50 ([1]; cell line MOLT-4, read-out: cell panel IC50, MOLT-4): 29.1 µM
- IC50 ([1]; cell line MeWo, read-out: cell panel IC50, MeWo): 6.49 µM
- IC50 ([1]; cell line NCI-H82, read-out: cell panel IC50, NCI-H82): 2.54 µM
- IC50 ([1]; cell line NCI-H460, read-out: cell panel IC50, NCI-H460): 2.98 µM
- IC50 ([1]; cell line OVCAR-3, read-out: cell panel IC50, OVCAR-3): 5.26 µM
- IC50 ([1]; cell line RPMI-7951, read-out: cell panel IC50, RPMI-7951): 0.024 µM
- IC50 ([1]; cell line SK-N-AS, read-out: cell panel IC50, SK-N-AS): 3.55 µM
- IC50 ([1]; cell line SW48, read-out: cell panel IC50, SW48): 10.6 µM
- IC50 ([1]; cell line SW480, read-out: cell panel IC50, SW480): 16.6 µM
- %-inhibition of FGFR1(V561M) [2]: -0.282%
- %-inhibition, AXL ([3]; kinase AXL, 1 μM compound): 30%
- %-inhibition of PAK6 ([4]; kinase PAK6, 1 μM): 9%

SMILES: C#Cc1cccc(Nc2ncnc3cc(OCCOC)c(OCCOC)cc23)c1 [erlotinib]
- IC50 ([1]; 4-4 cell, read-out: cell panel IC50, J82): 4.54 µM
- IC50 ([1]; 4-4 cell, read-out: cell panel IC50, PA-1): 4.07 µM
- IC50 ([1]; 4-4 cell, read-out: cell panel IC50, SJCRH30): > 31.6 µM
- IC50 ([1]; 4-4 cell, read-out: cell panel IC50, SR): 4.23 µM
- IC50 ([1]; 769-P, read-out: cell panel IC50, 769-P): 20.2 µM
- IC50 ([1]; 786-0, read-out: cell panel IC50, 786-0): 6.13 µM
- IC50 [1, 7]: > 31.6 µM
- IC50 ([1]; A204, read-out: cell panel IC50, A-204): 5.16 µM
- IC50 [1, 8]: 4.97 µM
- IC50 ([1]; A-375, read-out: cell panel IC50, A375): 5.05 µM
- IC50 ([1]; ACHN, read-out: cell panel IC50, ACHN): 1.37 µM
- IC50 ([1]; AN3-CA, read-out: cell panel IC50, AN3 CA): 4.29 µM
- IC50 [1, 9]: 2.74 µM
- IC50 ([1]; BT-20, read-out: cell panel IC50, BT-20): > 31.6 µM
- IC50 ([1]; BXPC-3, read-out: cell panel IC50, BxPC-3): 4.21 µM
- IC50 ([1]; C-33-A, read-out: cell panel IC50, C-33 A): 0.865 µM
- IC50 ([1]; CAL-27, read-out: cell panel IC50, CAL 27): 0.256 µM
- IC50 ([1]; CCRF-CEM, read-out: cell panel IC50, CCRF-CEM): > 31.6 µM
- IC50 ([1]; DLD-1, read-out: cell panel IC50, DLD-1): 3.87 µM
- IC50 ([1]; FaDu, read-out: cell panel IC50, FaDu): 1.16 µM
- IC50 ([1]; HCT-15, read-out: cell panel IC50, HCT-15): 6.31 µM
- IC50 [1, 10]: 8.12 µM
- IC50 ([1]; Hs-578T, read-out: cell panel IC50, Hs 578T): 7.12 µM
- IC50 ([1]; Jurkat E6.1, read-out: cell panel IC50, Jurkat E6.1): 22.6 µM
- IC50 [1, 11]: 7.05 µM
- IC50 [1, 12]: 3.27 µM
- IC50 ([1]; LoVo, read-out: cell panel IC50, LoVo): 2.24 µM
- IC50 ([1]; MG-63, read-out: cell panel IC50, MG-63): 13.3 µM
- IC50 ([1]; MOLT-4, read-out: cell panel IC50, MOLT-4): 6.34 µM
- IC50 ([1]; MeWo, read-out: cell panel IC50, MeWo): 9.02 µM
- IC50 ([1]; NCI-H82, read-out: cell panel IC50, NCI-H82): 20.1 µM
- IC50 ([1]; NCI-H460, read-out: cell panel IC50, NCI-H460): 5.53 µM
- IC50 ([1]; OVCAR-3, read-out: cell panel IC50, OVCAR-3): 5.46 µM
- IC50 ([1]; RPMI-7951, read-out: cell panel IC50, RPMI-7951): > 31.6 µM
- IC50 ([1]; SHP77, read-out: cell panel IC50, SHP-77): > 31.6 µM
- IC50 ([1]; SK-N-AS, read-out: cell panel IC50, SK-N-AS): 5.84 µM
- IC50 ([1]; SW48, read-out: cell panel IC50, SW48): > 31.6 µM
- IC50 ([1]; SW480, read-out: cell panel IC50, SW480): > 31.6 µM
- IC50 ([1]; SW-620, read-out: cell panel IC50, SW620): 6.41 µM
- IC50 ([1]; U2OS, read-out: cell panel IC50, U-2 OS): > 31.6 µM
- IC50 ([1]; U-87 MG, 72 h, read-out: IC50 in cell proliferation assay (table S5 cellpanel data)): > 31.6 µM
- %-inhibition of PKACβ [5]: -3%
- %-inhibition, AXL ([3]; 1 µM): 18%
- %-inhibition of NEK2 [6]: -0.556%
- %-inhibition of PAK6 ([4]; 1 µM): 5%
